Assay results as given in the supplement of paper PMC10307832.

Key:
Assay in all cases: relative viability (nuclei count vs DMSO), 5 days (fraction); higher = more cells survive
Tanzisertib + Vorinostat = compound: O[C@H]1CC[C@H](Nc2ncc3nc(Nc4c(F)cc(F)cc4F)n([C@H]4CCOC4)c3n2)CC1 [Tanzisertib] + O=C(CCCCCCC(=O)Nc1ccccc1)NO [Vorinostat] (partner 1 µM)
Summary of the method: (§1)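 Dosing by pin tool came one day after lung cancer cell lines were seeded in 1536-well plates, using either one drug or a fixed anchor-drug dose plus five library-drug doses (not always all listed) in √10 steps. After 5 days, nuclei were counted on 4× images. Relative viability is treated-well nuclei count divided by vehicle-well nuclei count, and values are medians of duplicate plates.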

[1] = compound: C1CNCCC1C2=CC(=NN2)C3=CC=NC=C3 + Cc1cc(Nc2cc(N3CCN(C)CC3)nc(Sc3ccc(NC(=O)C4CC4)cc3)n2)n[nH]1 [Tozasertib] (partner 0.1 µM)
Summary of the method: as §1

[2] = compound: C[C@@H](N)c1ccc(C(=O)Nc2ccnc3[nH]ccc23)cc1 + COc1cccc2cc(-c3nc([C@H]4CC[C@H](C(=O)O)CC4)n4ncnc(N)c34)[nH]c12 [OSI-027] (partner 0.5 µM)
Summary of the method: as §1

Tanzisertib + Pictilisib = compound: O[C@H]1CC[C@H](Nc2ncc3nc(Nc4c(F)cc(F)cc4F)n([C@H]4CCOC4)c3n2)CC1 [Tanzisertib] + CS(=O)(=O)N1CCN(Cc2cc3nc(-c4cccc5[nH]ncc45)nc(N4CCOCC4)c3s2)CC1 [Pictilisib] (partner 1 µM)
Summary of the method: as §1

Cell Line	relative viability (Tanzisertib + Vorinostat; first compound 0.08 µM)	relative viability (Tanzisertib + Vorinostat; first compound 0.253 µM)	relative viability (Tanzisertib + Vorinostat; first compound 0.8 µM)	relative viability (Tanzisertib + Vorinostat; first compound 2.53 µM)	relative viability (Tanzisertib + Vorinostat; first compound 8 µM)	relative viability ([1]; first compound 0.08 µM)	relative viability ([1]; first compound 2.53 µM)	relative viability ([1]; first compound 8 µM)	relative viability ([2]; first compound 0.04 µM)	relative viability ([2]; first compound 0.1265 µM)	relative viability ([2]; first compound 0.4 µM)	relative viability ([2]; first compound 1.265 µM)	relative viability ([2]; first compound 4 µM)	relative viability (Tanzisertib + Pictilisib; first compound 0.08 µM)	relative viability (Tanzisertib + Pictilisib; first compound 0.253 µM)	relative viability (Tanzisertib + Pictilisib; first compound 0.8 µM)	relative viability (Tanzisertib + Pictilisib; first compound 2.53 µM)	relative viability (Tanzisertib + Pictilisib; first compound 8 µM)	relative viability ([1]; first compound 0.8 µM)
NCI-H1755	0.756	0.791	0.828	0.624	0.79	0.583	0.643	0.526	0.606	0.815	0.758	0.638	0.587	0.47	0.456	0.433	0.429	0.331	–
NCI-H1793	0.787	0.789	0.748	0.641	0.551	0.313	0.332	0.373	0.322	0.284	0.254	–	0.355	0.378	0.234	0.377	0.251	0.317	0.243
NCI-H1915	0.569	0.535	0.46	0.503	0.487	0.475	0.451	0.438	0.562	0.64	0.63	–	0.489	1.19	0.958	0.946	0.95	0.732	0.435
NCI-H1944	0.607	0.562	0.633	0.611	0.533	0.243	0.263	0.256	0.409	0.368	0.397	0.26	0.384	0.364	0.344	0.351	0.331	0.336	0.264
NCI-H1975	0.743	0.761	0.71	0.704	0.656	0.885	0.725	0.724	0.799	0.876	0.666	0.673	0.533	0.297	0.266	0.304	0.295	0.309	0.759
NCI-H1993	0.901	0.928	1.1	0.769	0.77	0.586	0.564	0.653	0.529	0.556	0.574	0.577	0.603	0.875	0.873	0.774	1.09	0.844	0.618
NCI-H2009	0.728	0.743	0.773	0.753	0.729	0.713	0.689	0.696	0.675	0.77	0.655	0.714	0.624	0.965	0.794	0.972	0.882	0.563	0.74
NCI-H2023	0.826	0.502	0.803	0.555	0.625	0.351	0.482	0.256	0.475	0.435	0.569	0.476	0.509	0.259	0.197	0.246	0.243	0.233	0.3
NCI-H2085	–	0.801	0.917	0.828	0.879	0.934	0.847	0.832	0.744	0.816	0.77	0.397	0.717	0.474	0.454	0.465	0.478	0.435	–
NCI-H2087	0.862	0.701	0.772	0.797	1.14	0.267	0.226	0.202	1.02	0.721	0.924	–	0.613	1.17	0.838	0.886	0.753	0.743	0.231
NCI-H2126	0.86	0.758	0.85	0.727	0.454	0.674	0.916	0.858	0.9	0.654	0.797	–	0.944	0.522	0.464	0.503	0.494	0.52	0.974
NCI-H2170	0.806	0.864	0.874	0.82	0.705	0.667	0.775	0.681	0.775	0.739	0.747	0.515	0.718	0.357	0.307	0.313	0.307	0.27	0.621
NCI-H2228	1.03	0.626	0.777	0.728	0.518	0.28	0.274	0.309	0.581	0.618	0.65	0.786	0.543	0.499	0.444	0.32	0.291	0.367	0.191
NCI-H2347	0.744	0.628	0.696	0.588	0.463	0.766	0.557	0.571	0.502	0.494	0.414	–	0.631	0.781	0.444	0.501	0.478	0.715	0.599
NCI-H2405	1.04	1.19	1.14	1.17	0.404	0.749	0.692	0.525	0.594	0.742	0.695	0.542	0.36	0.438	0.422	0.49	0.421	0.323	0.751
NCI-H3122	1.37	1.09	0.932	1.09	1.12	0.366	0.408	0.417	1.2	1.14	1.06	–	1.1	0.655	0.591	0.587	0.572	0.743	0.416
PC-3 [JPC-3]	0.835	1.18	1.04	0.748	0.445	0.832	0.889	0.853	0.789	0.76	0.783	0.775	0.792	0.741	0.823	0.688	0.673	0.577	0.914
